Legend:
[1] = molecular target: PHD2 enzyme (residues 181-417) (Homo sapiens (Human), UniProt Q9GZT9); experiment: Inhibition of PHD enzyme (LC/MS peptide hydroxylation assay); format: biochemical; details: PHD2 (residues 181-417) 5 nM, 60 min pre-incubation, -log(IC50), IC50 molar
Outline: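 Hydroxylated peptide quantified by LC/MS after 60 min turnover of 1 uM biotinylated peptide with 2 uM 2-oxoglutarate and 1 mM ascorbate, stopped by excess tight-binding inhibitor. Beforehand, 5 nM enzyme and compound were preincubated 60 min at RT, pH 7.3 HEPES/KCl/TCEP/FeCl2/BSA buffer. Values as pIC50 (−log molar IC50).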

[2] = test system: HIF1a protein in H9c2 rat cardiomyocytes; experiment: Cell-based HIF-alpha stabilization assay (inhibition of PHD in cells); details: 24 hrs compound incubation, HIF1a protein by ELISA; for EC50: Rattus norvegicus, H9c2, 24 h, read-out: Inhibition of PHD in cells (pEC50) (converted)
Outline: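 HIF1a stabilization was measured by ELISA on lysates of H9c2 rat cardiomyocytes after 24 h exposure to 11 serial compound concentrations, expressed relative to the desferrioxamine maximum. Curve fits gave EC50. EC50pos denotes the concentration producing half the desferrioxamine maximal response.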

Sequence of PHD2 enzyme (residues 181-417) (Q9GZT9 181-417): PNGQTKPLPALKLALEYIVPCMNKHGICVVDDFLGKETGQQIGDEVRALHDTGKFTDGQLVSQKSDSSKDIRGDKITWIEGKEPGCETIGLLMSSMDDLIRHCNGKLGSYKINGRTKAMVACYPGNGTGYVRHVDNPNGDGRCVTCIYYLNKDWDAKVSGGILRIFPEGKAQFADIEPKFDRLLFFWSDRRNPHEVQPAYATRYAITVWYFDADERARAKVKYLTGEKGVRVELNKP

COc1cc(-c2cnn(-c3ccc(C(=O)NC4CC4)cn3)c2O)ccn1 [Example 204, N-cyclopropyl-6-(5-hydroxy-4-(2-methoxypyridin-4-yl)-1H-pyrazol-1-yl)nicotinamide]
PHD Inhibition (pIC50) [1]: 7.08
EC50 [2]: 0.468 µM

COCC1(NC(=O)c2ccc(-n3ncc(-c4ccnc(OC)c4)c3O)nc2)CC1 [Example 205, 6-(5-hydroxy-4-(2-methoxypyridin-4-yl)-1H-pyrazol-1-yl)-N-(1-(methoxymethyl)cyclopropyl)nicotinamide]
PHD Inhibition (pIC50) [1]: 6.89
EC50 [2]: 0.631 µM

Cc1cc(C#N)ccc1-c1cnn(-c2ccc(C(=O)NCCC3CCCCO3)cn2)c1O (centres unmarked) [Example 206, 6-(4-(4-cyano-2-methylphenyl)-5-hydroxy-1H-pyrazol-1-yl)-N-(2-(tetrahydro-2H-pyran-2-yl)ethyl)nicotinamide]
PHD Inhibition (pIC50) [1]: 8.2
EC50 [2]: 0.11 µM

COc1cc(-c2cnn(-c3ccc(C(=O)NCCC4CCCCO4)cn3)c2O)ccn1 (centres unmarked) [Example 207, 6-(5-hydroxy-4-(2-methoxypyridin-4-yl)-1H-pyrazol-1-yl)-N-(2-(tetrahydro-2H-pyran-2-yl)ethyl)nicotinamide]
PHD Inhibition (pIC50) [1]: 8.3
EC50 [2]: 0.123 µM

COCCC1(NC(=O)c2ccc(-n3ncc(-c4ccc(C#N)cc4)c3O)nc2)CC1 [Example 208, 6-(4-(4-cyanophenyl)-5-hydroxy-1H-pyrazol-1-yl)-N-(1-(2-methoxyethyl)cyclopropyl)nicotinamide]
PHD Inhibition (pIC50) [1]: 7.8
EC50 [2]: 0.269 µM

COCCC1(NC(=O)c2ccc(-n3ncc(-c4ccnc(OC)c4)c3O)nc2)CC1 [Example 209, 6-(5-hydroxy-4-(2-methoxypyridin-4-yl)-1H-pyrazol-1-yl)-N-(1-(2-methoxyethyl)cyclopropyl)nicotinamide]
PHD Inhibition (pIC50) [1]: 6.98
EC50 [2]: 0.398 µM

Cn1ccc(-c2cnn(-c3ccc(C(=O)NCC4CCOCC4)cn3)c2O)cc1=O [Example 211, 6-(5-hydroxy-4-(1-methyl-2-oxo-1,2-dihydropyridin-4-yl)-1H-pyrazol-1-yl)-N-((tetrahydro-2H-pyran-4-yl)methyl)nicotinamide]
PHD Inhibition (pIC50) [1]: 6.47
EC50 [2]: 50.1 µM

COCCCNC(=O)c1ccc(-n2ncc(-c3ccc(C#N)cc3F)c2O)nc1 [Example 213, 6-(4-(4-cyano-2-fluorophenyl)-5-hydroxy-1H-pyrazol-1-yl)-N-(3-methoxypropyl)nicotinamide]
PHD Inhibition (pIC50) [1]: 7.45
EC50 [2]: 0.38 µM

COCCCNC(=O)c1ccc(-n2ncc(-c3cc(C)nc(OC)c3)c2O)nc1 [Example 214, 6-(5-hydroxy-4-(2-methoxy-6-methylpyridin-4-yl)-1H-pyrazol-1-yl)-N-(3-methoxypropyl)nicotinamide]
IC50 ([1]; read-out: PHD Inhibition (pIC50) (converted)): 0.174 µM
EC50 [2]: 2.82 µM

COCCC1(NC(=O)c2ccc(-n3ncc(-c4ccc(C#N)cc4C)c3O)nc2)CC1 [Example 215, 6-(4-(4-cyano-2-methylphenyl)-5-hydroxy-1H-pyrazol-1-yl)-N-(1-(2-methoxyethyl)cyclopropyl)nicotinamide]
PHD Inhibition (pIC50) [1]: 7.21
EC50 [2]: 0.257 µM

COCCCNC(=O)c1ccc(-n2ncc(-c3ccc(=O)n(C)c3)c2O)nc1 [Example 216, 6-(5-hydroxy-4-(1-methyl-6-oxo-1,6-dihydropyridin-3-yl)-1H-pyrazol-1-yl)-N-(3-methoxypropyl)nicotinamide]
PHD Inhibition (pIC50) [1]: 7.1
EC50 [2]: 5.25 µM

COCCCNC(=O)c1ccc(-n2ncc(-c3ccc(CC#N)cc3)c2O)nc1 [Example 217, 6-(4-(4-(cyanomethyl)phenyl)-5-hydroxy-1H-pyrazol-1-yl)-N-(3-methoxypropyl)nicotinamide]
PHD Inhibition (pIC50) [1]: 8.1
EC50 [2]: 1.23 µM

CCOc1cc(-c2cnn(-c3ccc(C(=O)NCCCOC)cn3)c2O)ccn1 [Example 218, 6-(4-(2-ethoxypyridin-4-yl)-5-hydroxy-1H-pyrazol-1-yl)-N-(3-methoxypropyl)nicotinamide]
PHD Inhibition (pIC50) [1]: 7.9
EC50 [2]: 4.68 µM

COCCCNC(=O)c1ccc(-n2ncc(-c3ccc(CC#N)c(F)c3)c2O)nc1 [Example 219, 6-(4-(4-(cyanomethyl)-3-fluorophenyl)-5-hydroxy-1H-pyrazol-1-yl)-N-(3-methoxypropyl)nicotinamide]
PHD Inhibition (pIC50) [1]: 8.2
EC50 [2]: 1.23 µM

N#Cc1ccc(-c2cnn(-c3ccc(C(=O)NCc4ccccc4)cn3)c2O)c(F)c1 [Example 220, N-benzyl-6-(4-(4-cyano-2-fluorophenyl)-5-hydroxy-1H-pyrazol-1-yl)nicotinamide]
PHD Inhibition (pIC50) [1]: 7.13
EC50 [2]: 1.07 µM

N#Cc1ccc(-c2cnn(-c3ccc(C(=O)NCC4CCOCC4)cn3)c2O)c(F)c1 [Example 221, 6-(4-(4-cyano-2-fluorophenyl)-5-hydroxy-1H-pyrazol-1-yl)-N-((tetrahydro-2H-pyran-4-yl)methyl)nicotinamide]
PHD Inhibition (pIC50) [1]: 7.11
EC50 [2]: 0.933 µM

Cc1cc(C#N)ccc1-c1cnn(-c2ccc(C(=O)NCC3CCOCC3)cn2)c1O [Example 222, 6-(4-(4-cyano-2-methylphenyl)-5-hydroxy-1H-pyrazol-1-yl)-N-((tetrahydro-2H-pyran-4-yl)methyl)nicotinamide]
PHD Inhibition (pIC50) [1]: 7.25
EC50 [2]: 0.1 µM

Cc1cc(-c2cnn(-c3ccc(C(=O)NCC4CCOCC4)cn3)c2O)ccn1 [Example 223, 6-(5-hydroxy-4-(2-methylpyridin-4-yl)-1H-pyrazol-1-yl)-N-((tetrahydro-2H-pyran-4-yl)methyl)nicotinamide]
PHD Inhibition (pIC50) [1]: 5.43
EC50 [2]: 50.1 µM

O=C(NCc1ccccc1)c1ccc(-n2ncc(-c3ccncc3)c2O)nc1 [Example 225, N-benzyl-6-(5-hydroxy-4-(pyridin-4-yl)-1H-pyrazol-1-yl)nicotinamide]
PHD Inhibition (pIC50) [1]: 7.56
EC50 [2]: 2.34 µM

CO[C@H]1CC[C@@H](NC(=O)c2ccc(-n3ncc(-c4ccc(C#N)cc4)c3O)nc2)CC1 [Example 227, 6-(4-(4-cyanophenyl)-5-hydroxy-1H-pyrazol-1-yl)-N-((1s,4s)-4-methoxycyclohexyl)nicotinamide]
PHD Inhibition (pIC50) [1]: 7.38
EC50 [2]: 0.55 µM

CO[C@H]1CC[C@H](NC(=O)c2ccc(-n3ncc(-c4ccc(C#N)cc4)c3O)nc2)CC1 [Example 228, 6-(4-(4-cyanophenyl)-5-hydroxy-1H-pyrazol-1-yl)-N-((1r,4r)-4-methoxycyclohexyl)nicotinamide]
PHD Inhibition (pIC50) [1]: 7.48
Inhibition of PHD in cells (pEC50) [2]: 6.59

CO[C@H]1CC[C@H](NC(=O)c2ccc(-n3ncc(-c4ccc(C#N)cc4)c3O)nc2)CC1 [Example 229, 6-(4-(4-cyanophenyl)-5-hydroxy-1H-pyrazol-1-yl)-N-((1r,4r)-4-methoxycyclohexyl)nicotinamide]
PHD Inhibition (pIC50) [1]: 7.62
EC50 [2]: 1.05 µM

COc1cc(C#N)ccc1-c1cnn(-c2ccc(C(=O)N[C@H]3CC[C@@H](OC)CC3)cn2)c1O [Example 230, 6-(4-(4-cyano-2-methoxyphenyl)-5-hydroxy-1H-pyrazol-1-yl)-N-((1s,4s)-4-methoxycyclohexyl)nicotinamide]
PHD Inhibition (pIC50) [1]: 6.83
EC50 [2]: 0.407 µM

COCCCNC(=O)c1ccc(-n2ncc(-c3ccc(C#N)cc3OC)c2O)nc1 [Example 231, 6-(4-(4-cyano-2-methoxyphenyl)-5-hydroxy-1H-pyrazol-1-yl)-N-(3-methoxypropyl)nicotinamide]
PHD Inhibition (pIC50) [1]: 6.95
EC50 [2]: 0.372 µM

COc1cc(C#N)ccc1-c1cnn(-c2ccc(C(=O)NC3CC3)cn2)c1O [Example 232, 6-(4-(4-cyano-2-methoxyphenyl)-5-hydroxy-1H-pyrazol-1-yl)-N-cyclopropylnicotinamide]
PHD Inhibition (pIC50) [1]: 7.01
EC50 [2]: 0.339 µM

COc1cc(-c2cnn(-c3ccc(C(=O)NC4(C5CCOCC5)CC4)cn3)c2O)ccn1 [Example 233, 6-(5-hydroxy-4-(2-methoxypyridin-4-yl)-1H-pyrazol-1-yl)-N-(1-(tetrahydro-2H-pyran-4-yl)cyclopropyl)nicotinamide]
PHD Inhibition (pIC50) [1]: 6.7
EC50 [2]: 0.589 µM

COCCCN(C)C(=O)c1ccc(-n2ncc(-c3ccc(C#N)cc3)c2O)nc1 [Example 234, 6-(4-(4-cyanophenyl)-5-hydroxy-1H-pyrazol-1-yl)-N-(3-methoxypropyl)-N-methylnicotinamide]
PHD Inhibition (pIC50) [1]: 7.12
EC50 [2]: 2.24 µM

COCCCCNC(=O)c1ccc(-n2ncc(-c3ccc(C#N)cc3)c2O)nc1 [Example 235, 6-(4-(4-cyanophenyl)-5-hydroxy-1H-pyrazol-1-yl)-N-(4-methoxybutyl)nicotinamide]
PHD Inhibition (pIC50) [1]: 7.43
EC50 [2]: 0.269 µM

N#Cc1ccc(-c2cnn(-c3ccc(C(=O)NCCOC(F)(F)F)cn3)c2O)cc1 [Example 236, 6-(4-(4-cyanophenyl)-5-hydroxy-1H-pyrazol-1-yl)-N-(2-(trifluoromethoxy)ethyl)nicotinamide]
PHD Inhibition (pIC50) [1]: 7.51
EC50 [2]: 0.589 µM

N#Cc1ccc(-c2cnn(-c3ccc(C(=O)NC4CC5(COC5)C4)cn3)c2O)cc1 [Example 237, 6-(4-(4-cyanophenyl)-5-hydroxy-1H-pyrazol-1-yl)-N-(2-oxaspiro[3.3]heptan-6-yl)nicotinamide]
PHD Inhibition (pIC50) [1]: 7.54
EC50 [2]: 0.447 µM

COCCCCNC(=O)c1ccc(-n2ncc(-c3ccc(C#N)cc3OC)c2O)nc1 [Example 238, 6-(4-(4-cyano-2-methoxyphenyl)-5-hydroxy-1H-pyrazol-1-yl)-N-(4-methoxybutyl)nicotinamide]
PHD Inhibition (pIC50) [1]: 6.85
EC50 [2]: 0.468 µM

— patent publication US10407409B2, “6-(5-hydroxy-1H-pyrazol-1-yl)nicotinamide inhibitors of PHD” (Takeda Pharmaceutical Company Limited, priority 2013, dated 2019)
